# In PMC10385868 (Viruses, 2023):
# Test system: VEEV-infected HeLa cells
# Assay: microbe, parasite or virus in culture
# Assay type: cell-based, Venezuelan equine encephalitis virus
# Conditions: not given
row,Structure (SMILES),inhibition [%]
1,CCCNC(=O)[C@H]1O[C@H]1C(=O)N[C@H](C(=O)N1CCC[C@@H]1C(=O)OC)C(C)CC (some centres unmarked) [NCGC00163431-03],83

# Same assay, conditions: Venezuelan equine encephalitis virus, HeLa
row,Structure (SMILES),inhibition at 1.562 µM [%]
1,CCCNC(=O)[C@H]1O[C@H]1C(=O)N[C@H](C(=O)N1CCC[C@@H]1C(=O)OC)C(C)CC (some centres unmarked) [NCGC00163431-03],82.9

# Molecular target: VEEV nsP2 protease (Venezuelan equine encephalitis virus, UniProt P27282)
# Sequence (P27282 1003-1322 limits assumed): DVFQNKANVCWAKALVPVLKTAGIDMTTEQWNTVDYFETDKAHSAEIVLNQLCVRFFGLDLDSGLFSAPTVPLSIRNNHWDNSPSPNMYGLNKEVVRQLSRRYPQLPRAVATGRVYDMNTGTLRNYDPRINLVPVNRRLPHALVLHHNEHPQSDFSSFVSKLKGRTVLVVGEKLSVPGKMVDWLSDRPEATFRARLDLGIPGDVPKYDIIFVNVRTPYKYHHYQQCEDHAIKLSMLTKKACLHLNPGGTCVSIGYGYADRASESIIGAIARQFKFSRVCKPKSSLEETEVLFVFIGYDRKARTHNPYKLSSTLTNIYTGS
# Assay: biochemical
# Assay type: biochemical
# Conditions: not given
row,Structure (SMILES),IC50 [µM]
1,O=C(/C=C/c1cccs1)Nc1scc(-c2ccccc2)c1C(=O)O [MLS000773385-01],15 ± 2
2,CCc1ccc2c(c1)C(NC(C)=O)C(=O)N2CCN1CCOCC1 (centres unmarked) [MLS001215951-01],18 ± 7
3,CC(=O)NC1C(=O)N(CCN2CCOCC2)c2ccc(F)cc21 (centres unmarked) [MLS001215963-01],16 ± 3
4,CC(=O)NC1C(=O)N(CCN2CCOCC2)c2ccc(Br)cc21 (centres unmarked) [MLS001215987-01],14 ± 3

# Same assay, conditions: read-out: IC50
row,Structure (SMILES),IC50 [µM]
1,Cc1cc(C(=O)CCl)c(C)n1-c1cccc([N+](=O)[O-])c1 [MLS000877947-01],> 200
2,O=C(CSc1ccccn1)Nc1nonc1[N+](=O)[O-] [MLS001030320-01],> 100
3,COc1ccc(C2CC(c3cccs3)=NN2C(=O)CCl)cc1OC (centres unmarked) [MLS001178292-01],> 200
4,Cc1ccc(C2=NN(C(=O)CCl)C(c3ccco3)C2)o1 (centres unmarked) [MLS001179882-01],> 200
5,O=c1[nH]c(=O)n(-c2ccccc2F)c(O)c1/C=C1\C=Nc2ccccc21 [MLS001197204-01],30 ± 20
6,COc1cc2c(cc1OC)C(c1cc(Br)ccc1F)N(C(=O)CCl)CC2 (centres unmarked) [MLS001198393-01],> 200
7,CCc1nc(N2CCN(C(=O)CCl)CC2)c2c3c(sc2n1)CC(C)CC3 (centres unmarked) [MLS001212815-01],> 200

# Test system: VEEV-Trd
# Assay: microbe, parasite or virus in culture
# Assay type: cell-based, Venezuelan equine encephalitis virus
# Conditions: not given
row,Structure (SMILES),concentration showing inhibition in cell-based assays [µM]
1,CC(C)CCNC(=O)C(CC(C)C)NC(=O)C1OC1C(=O)O (centres unmarked) [NCGC00018306-02],< 15
2,CCCNC(=O)[C@H]1O[C@H]1C(=O)N[C@H](C(=O)N1CCC[C@@H]1C(=O)OC)C(C)CC (some centres unmarked) [NCGC00163431-03],< 15

# Same assay, conditions: Venezuelan equine encephalitis virus
row,Structure (SMILES),EC50 [µM]
1,O=C(/C=C/c1cccs1)Nc1scc(-c2ccccc2)c1C(=O)O [MLS000773385-01],> 50
2,CCc1ccc2c(c1)C(NC(C)=O)C(=O)N2CCN1CCOCC1 (centres unmarked) [MLS001215951-01],> 50
3,CC(=O)NC1C(=O)N(CCN2CCOCC2)c2ccc(Br)cc21 (centres unmarked) [MLS001215987-01],> 50

# Same assay, conditions: at 50 µM
row,Structure (SMILES),antiviral activity against VEEV-Trd in cell-based assays
1,COc1ccc(C2CC(c3cccs3)=NN2C(=O)CCl)cc1OC (centres unmarked) [MLS001178292-01],did not demonstrate significant antiviral activity

# Same assay, conditions: read-out: EC50
row,Structure (SMILES),EC50 [µM]
1,Cc1cc(C(=O)CCl)c(C)n1-c1cccc([N+](=O)[O-])c1 [MLS000877947-01],> 50
2,O=C(CSc1ccccn1)Nc1nonc1[N+](=O)[O-] [MLS001030320-01],> 50
3,O=C(Nc1ccccc1)NN(C(=O)CCl)c1ccccc1 [MLS001177992-01],> 50
4,Cc1ccc(C2=NN(C(=O)CCl)C(c3ccco3)C2)o1 (centres unmarked) [MLS001179882-01],> 50
5,O=c1[nH]c(=O)n(-c2ccccc2F)c(O)c1/C=C1\C=Nc2ccccc21 [MLS001197204-01],> 50
6,COc1cc2c(cc1OC)C(c1cc(Br)ccc1F)N(C(=O)CCl)CC2 (centres unmarked) [MLS001198393-01],> 16.7
7,CCc1nc(N2CCN(C(=O)CCl)CC2)c2c3c(sc2n1)CC(C)CC3 (centres unmarked) [MLS001212815-01],> 50

# Test system: not given
# Assay: not given
# Conditions: rat, microsomes
row,Structure (SMILES),Rat_SD/Microsomes t1/2 [m]
1,O=c1cc(N2CCOCC2)oc2c1ccc1ccccc12 [NCGC00165840-02],>30

# Test system: not given
# Assay: not given
# Conditions: PAMPA
row,Structure (SMILES),Permeability (PAMPA_Pion_Lipid) [nm/s]
1,O=c1cc(N2CCOCC2)oc2c1ccc1ccccc12 [NCGC00165840-02],2942

# Test system: cell viability
# Assay: not given
# Conditions: not given
Structure (SMILES),CC50 [µM],cytotoxicity
Cc1cc(C(=O)CCl)c(C)n1-c1cccc([N+](=O)[O-])c1 [MLS000877947-01],> 50,–
O=C(CSc1ccccn1)Nc1nonc1[N+](=O)[O-] [MLS001030320-01],> 50,–
O=C(Nc1ccccc1)NN(C(=O)CCl)c1ccccc1 [MLS001177992-01],> 50,–
COc1ccc(C2CC(c3cccs3)=NN2C(=O)CCl)cc1OC (centres unmarked) [MLS001178292-01],> 50,cytotoxic
Cc1ccc(C2=NN(C(=O)CCl)C(c3ccco3)C2)o1 (centres unmarked) [MLS001179882-01],> 50,–
O=c1[nH]c(=O)n(-c2ccccc2F)c(O)c1/C=C1\C=Nc2ccccc21 [MLS001197204-01],> 50,–
COc1cc2c(cc1OC)C(c1cc(Br)ccc1F)N(C(=O)CCl)CC2 (centres unmarked) [MLS001198393-01],> 50,–
CCc1nc(N2CCN(C(=O)CCl)CC2)c2c3c(sc2n1)CC(C)CC3 (centres unmarked) [MLS001212815-01],> 50,–

# Same assay, conditions: African green monkey
row,Structure (SMILES),concentration at which toxicity / cytotoxicity was seen [µM]
1,CCCNC(=O)[C@H]1O[C@H]1C(=O)N[C@H](C(=O)N1CCC[C@@H]1C(=O)OC)C(C)CC (some centres unmarked) [NCGC00163431-03],100

# Test system: not listed separately
# Assay: in vitro
# Conditions: African green monkey
row,Structure (SMILES),CC50 [µM]
1,O=C(/C=C/c1cccs1)Nc1scc(-c2ccccc2)c1C(=O)O [MLS000773385-01],> 50
2,CCc1ccc2c(c1)C(NC(C)=O)C(=O)N2CCN1CCOCC1 (centres unmarked) [MLS001215951-01],> 50
3,CC(=O)NC1C(=O)N(CCN2CCOCC2)c2ccc(Br)cc21 (centres unmarked) [MLS001215987-01],> 50
